Literature values, collected in publication PMC8679591, “FAPI-74 PET/CT Using Either ^18F-AlF or Cold-Kit ^68Ga Labeling: Biodistribution, Radiation Dosimetry, and Tumor Delineation in Lung Cancer Patients” (Journal of Nuclear Medicine, 2021).

SMILES | Effective dose
N[C@@H](C[C@H](CCC[18F])C(=O)O)C(=O)O [(S)-4-(3-^18F-fluoropropyl)-L-glutamic acid] | 0.032 mSv/MBq
N[C@@H](Cc1ccc(OCC[18F])cc1)C(=O)O [O-(2-^18F-fluoroethyl)-L-tyrosine] | 0.016 mSv/MBq
Cc1cn([C@H]2C[C@H]([18F])[C@@H](CO)O2)c(=O)[nH]c1=O [^18F-3′-deoxy-3′-^18F-fluorothymidine, 3′-deoxy-3′-^18F-fluorothymidine] | 0.028 mSv/MBq
O=C(O)CC[C@H](NC(=O)N[C@@H](CCCCNC(=O)[C@H](Cc1ccc2ccccc2c1)NC(=O)c1ccc(CNC(=O)[C@H](CCC(=O)O)NC(=O)[C@H](CCC(=O)O)NC(=O)c2ccc([18F])nc2)cc1)C(=O)O)C(=O)O [^18F-PSMA-1007] | 0.022 mSv/MBq
C[N+](C)(CF)CCO [^18F-fluorocholine] | 0.031 mSv/MBq
O=[N+]([O-])c1nccn1CC(O)C[18F] (centres unmarked) [^18F-fluoromisonidazole] | 0.013 mSv/MBq
CNc1ccc(/C=C/c2ccc(OCCOCCOCC[18F])cc2)cc1 [^18F-flurbetaben] | 0.015 mSv/MBq
CC(C)(C)n1ncc(OCc2ccc(COCC[18F])cc2)c(Cl)c1=O [^18F-flurpiridaz] | 0.019 mSv/MBq
N#C[C@@H]1CCCN1C(=O)CNC(=O)c1ccnc2ccc(OCCCN3CCN(C(=O)CN4CCN(CC(=O)O)CCN(CC(=O)O)CCN(CC(=O)O)CC4)CC3)cc12 [^68Ga-FAPI-2, metal not drawn] | 0.008–0.015 mSv/MBq
N#C[C@@H]1CC(F)(F)CN1C(=O)CNC(=O)c1ccnc2ccc(OCCCN3CCN(C(=O)CN4CCN(CC(=O)O)CCN(CC(=O)O)CCN(CC(=O)O)CC4)CC3)cc12 [^68Ga-FAPI-4, metal not drawn] | 0.008–0.015 mSv/MBq
O=C([O-])CN(CCN(CC(=O)[O-])Cc1cc(CCC(=O)NCCCCCC(=O)NCCCC[C@H](NC(=O)N[C@@H](CCC(=O)O)C(=O)O)C(=O)O)ccc1[O-])Cc1cc(CCC(=O)O)ccc1[O-].[68Ga+3].[OH3+] [^68Ga-PSMA-11] | 0.023 mSv/MBq
